From PubChem BioAssay (NCI)
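1) Cells in 96-well plates. 2) Compound, 48 h, 5 concentrations. 3) Linear interpolation between surrounding doses. 4) Unreached endpoint = highest concentration. Here, GI50 denotes the concentration required for 50% inhibition of growth. TGI denotes the concentration required for complete inhibition of growth.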

What was measured:
Experiment in all cases: NCI tumour cell line growth inhibition, 48 h
OVCAR-4 ovarian = system: OVCAR-4 ovarian
A498 renal = system: A498 renal
U251 CNS = system: U251 CNS
RPMI-8226 leukemia = system: RPMI-8226 leukemia
UACC-62 melanoma = system: UACC-62 melanoma
HCT-116 colon = system: HCT-116 colon
MDA-MB-231 breast = system: MDA-MB-231 breast
CAKI-1 renal = system: CAKI-1 renal
HL-60(TB) leukemia = system: HL-60(TB) leukemia
RXF 393 renal = system: RXF 393 renal

## COC(=O)[C@@]1(Cc2ccc(OC(C)=O)cc2)Cc2cc3ccccc3n2N1
OVCAR-4 ovarian
  TGI: > 100 µM
A498 renal
  TGI: 87.3 µM
U251 CNS
  TGI: > 100 µM
RPMI-8226 leukemia
  TGI: > 100 µM
UACC-62 melanoma
  TGI: > 100 µM
HCT-116 colon
  TGI: > 100 µM
MDA-MB-231 breast
  TGI: > 100 µM
CAKI-1 renal
  TGI: > 100 µM
HL-60(TB) leukemia
  TGI: 80.8 µM

## CCCC(CCC(=O)O)(CCC(=O)O)[N+](=O)[O-]
U251 CNS
  TGI: > 100 µM
RPMI-8226 leukemia
  TGI: > 100 µM
UACC-62 melanoma
  TGI: > 100 µM
HCT-116 colon
  TGI: > 100 µM
MDA-MB-231 breast
  TGI: > 100 µM
RXF 393 renal
  TGI: > 100 µM
CAKI-1 renal
  TGI: > 100 µM
HL-60(TB) leukemia
  TGI: > 100 µM

## O=C(Cn1cc(I)c(C(=O)NCC(O)CO)n1)NCC(O)CO (centres undefined)
OVCAR-4 ovarian
  TGI: > 100 µM
A498 renal
  TGI: > 100 µM
U251 CNS
  TGI: > 100 µM
RPMI-8226 leukemia
  TGI: > 100 µM
UACC-62 melanoma
  TGI: > 100 µM
HCT-116 colon
  TGI: > 100 µM
RXF 393 renal
  TGI: > 100 µM
HL-60(TB) leukemia
  TGI: > 100 µM

## CCc1cc2c(cc1O)CC[C@@H]1[C@@H]2CC[C@]2(C)[C@@H](O)CC[C@@H]12
OVCAR-4 ovarian
  TGI: 27.3 µM
A498 renal
  TGI: 34.6 µM
U251 CNS
  TGI: 16.7 µM
HCT-116 colon
  GI50: 3.52 µM
  TGI: 13.4 µM
MDA-MB-231 breast
  TGI: 21.4 µM
CAKI-1 renal
  TGI: 20.8 µM
HL-60(TB) leukemia
  TGI: 7.66 µM

## O=C(O)C(=Cc1ccc(-c2ccc([N+](=O)[O-])cc2)o1)C(=O)O
A498 renal
  TGI: > 100 µM
U251 CNS
  TGI: > 100 µM
RPMI-8226 leukemia
  TGI: > 100 µM
UACC-62 melanoma
  TGI: > 100 µM
HCT-116 colon
  TGI: > 100 µM
MDA-MB-231 breast
  TGI: > 100 µM
RXF 393 renal
  TGI: > 100 µM
CAKI-1 renal
  TGI: > 100 µM

## CCCCCCCCC/C=C1/CC(CO)(COC(=O)C2CCCCC2)OC1=O (centres undefined)
OVCAR-4 ovarian
  TGI: > 100 µM
A498 renal
  TGI: > 100 µM
U251 CNS
  TGI: > 100 µM
UACC-62 melanoma
  TGI: > 100 µM
HCT-116 colon
  TGI: > 100 µM
MDA-MB-231 breast
  TGI: > 100 µM
RXF 393 renal
  TGI: > 100 µM
CAKI-1 renal
  TGI: > 100 µM

## O=c1oc2c(Cl)cc(Cl)cc2cc1-c1cn2c(n1)sc1ccccc12
OVCAR-4 ovarian
  TGI: > 100 µM
U251 CNS
  TGI: > 100 µM
RPMI-8226 leukemia
  TGI: 89.1 µM
UACC-62 melanoma
  TGI: > 100 µM
HCT-116 colon
  TGI: > 100 µM
MDA-MB-231 breast
  TGI: > 100 µM
RXF 393 renal
  TGI: > 100 µM
CAKI-1 renal
  TGI: > 100 µM
HL-60(TB) leukemia
  TGI: 66.9 µM

## COc1ccc(/C=N/NC(=O)NCCNCCO)cc1
OVCAR-4 ovarian
  TGI: > 100 µM
A498 renal
  TGI: > 100 µM
U251 CNS
  TGI: > 100 µM
RPMI-8226 leukemia
  TGI: > 100 µM
UACC-62 melanoma
  TGI: > 100 µM
HCT-116 colon
  TGI: > 100 µM
RXF 393 renal
  TGI: > 100 µM
CAKI-1 renal
  TGI: > 100 µM
HL-60(TB) leukemia
  TGI: > 100 µM

## Clc1ccc(CCNCCNC2(c3cc4ccccc4s3)CCCCC2)cc1Cl
OVCAR-4 ovarian
  TGI: 3.17 µM
A498 renal
  TGI: 3.17 µM
U251 CNS
  TGI: 2.99 µM
RPMI-8226 leukemia
  TGI: 4.62 µM
UACC-62 melanoma
  TGI: 3.11 µM
HCT-116 colon
  TGI: 3.26 µM
MDA-MB-231 breast
  TGI: 3.24 µM
RXF 393 renal
  TGI: 4 µM
CAKI-1 renal
  TGI: 3.42 µM

## CC(=O)Nc1ccc(S(=O)(=O)Nc2cnc3ccccc3n2)cc1
OVCAR-4 ovarian
  TGI: > 100 µM
A498 renal
  TGI: > 100 µM
U251 CNS
  TGI: > 100 µM
RPMI-8226 leukemia
  TGI: > 100 µM
UACC-62 melanoma
  TGI: > 100 µM
RXF 393 renal
  TGI: > 100 µM
CAKI-1 renal
  TGI: > 100 µM
HL-60(TB) leukemia
  TGI: > 100 µM

## C#CCN(Cc1ccc2nc(-c3ccccc3)c(Cl)nc2c1)c1ccc(Cl)c(Cl)c1
OVCAR-4 ovarian
  TGI: > 100 µM
A498 renal
  TGI: > 100 µM
U251 CNS
  TGI: > 100 µM
UACC-62 melanoma
  TGI: > 100 µM
HCT-116 colon
  TGI: > 100 µM
CAKI-1 renal
  TGI: > 100 µM
HL-60(TB) leukemia
  TGI: > 100 µM

## Nc1ccc2ncc(NCc3ccc(F)cc3)nc2c1
OVCAR-4 ovarian
  TGI: > 100 µM
U251 CNS
  TGI: > 100 µM
RPMI-8226 leukemia
  TGI: > 100 µM
UACC-62 melanoma
  TGI: > 100 µM
HCT-116 colon
  TGI: > 100 µM
RXF 393 renal
  TGI: > 100 µM
CAKI-1 renal
  TGI: > 100 µM
HL-60(TB) leukemia
  TGI: > 100 µM
